System: Plasmodium berghei
Assay: Luciferase/luciferin-expressing antifolate-resistant parasites were used to infect a culture of HepG2 cells that were pre-incubated with compounds. Infected hepatocytes emit light due to the luciferase reaction. Assay results are presented as the percent inhibition of light emission compared to control. […]
Assay type: functional
Conditions: sporozoite; for IC90: read-out: LUCIFERASE INFECTION ASSAY - IC90
[1] = read-out: LUCIFERASE INFECTION ASSAY - IC50

SMILES | IC90 | IC50 [1] | other results
CC(C)(C)CC(C)(C)c1ccc(OCC(O)CNC2CCC(O)CC2)cc1 (configuration not stated) | 7.58 µM |  | IC50 (HEPG2TOX_HILL_SLOPE 10.5, HEPG2TOX_R_SQUARED 0.116, PBLUC_HILL_SLOPE 3.56, PBLUC_R_SQUARED 0.606, read-out: LUCIFERASE INFECTION ASSAY - IC50): 4.09 µM
CC(C)(C)c1cc2nc(C(F)(F)F)cc(NNC(=O)Nc3ccccc3)n2n1 | > 8.41 µM |  | IC50 (PBLUC_HILL_SLOPE 3.27, PBLUC_R_SQUARED 0.167, read-out: LUCIFERASE INFECTION ASSAY - IC50): 5.36 µM
O=C(Nc1ccc(Cl)c(Cl)c1)Nc1ccc(Cl)c(Cl)c1 | 1.35 µM |  | IC50 (HEPG2TOX_HILL_SLOPE 2.86, HEPG2TOX_R_SQUARED 0.877, PBLUC_HILL_SLOPE 1.38, PBLUC_R_SQUARED 0.733, read-out: LUCIFERASE INFECTION ASSAY - IC50): 0.275 µM
CC1CCC(C(C)C)C(OCC(=O)NCc2ccc(NC(=O)c3ccco3)cc2)C1 (configuration not stated) | > 10 µM |  | IC50 (PBLUC_HILL_SLOPE 3.59, PBLUC_R_SQUARED 0.694, read-out: LUCIFERASE INFECTION ASSAY - IC50): 6.09 µM
CCOC(=O)c1sc(SCc2ccccc2)c(S(=O)(=O)C(C)C)c1N | > 8.26 µM | > 8.26 µM | 
CC(C)N(C(C)C)S(=O)(=O)c1ccc(NNC(=O)Nc2ccccc2F)nc1 | > 10 µM |  | IC50 (PBLUC_HILL_SLOPE 3.78, PBLUC_R_SQUARED 0.132, read-out: LUCIFERASE INFECTION ASSAY - IC50): 6.19 µM
N#Cc1ccsc1NC(=O)CCN1CCN(Cc2c(F)cccc2Cl)CC1 | > 10 µM | > 10 µM | 
CC(C)CNc1cc(N2CCN(C)CC2)c(N)c2c1C(=O)c1ccccc1C2=O | > 8.41 µM | > 8.41 µM | 
Nc1ccc(-c2cnc3ccc(Cc4ccc(F)cc4)nn23)cn1 | 0.455 µM |  | IC50 (HEPG2TOX_HILL_SLOPE 2.46, HEPG2TOX_R_SQUARED 0.531, PBLUC_HILL_SLOPE 14.2, PBLUC_R_SQUARED 0.359, read-out: LUCIFERASE INFECTION ASSAY - IC50): 0.39 µM
CNS(=O)(=O)Cc1ccccc1CNCc1cccc(Oc2ccccc2)c1 | > 10 µM | > 10 µM | 
CSc1nc2c(c(=O)n(C)c(=O)n2C)n1Cc1cccc(C(F)(F)F)c1 | > 8.59 µM |  | IC50 (HEPG2TOX_HILL_SLOPE 6.71, HEPG2TOX_R_SQUARED 0.561, read-out: LUCIFERASE INFECTION ASSAY - IC50): > 8.59 µM
CCOC(=O)C1=C(C)N(S(=O)(=O)c2ccc(C)cc2)C(SC)=NC1c1ccccc1 (configuration not stated) | > 7.42 µM | > 7.42 µM | 
CC12CCC(=O)C(C(F)(F)F)=C1C=CC1C2CCC2(C)C(O)CCC12 (configuration not stated) | 3.6 µM |  | IC50 (HEPG2TOX_HILL_SLOPE 4.77, HEPG2TOX_R_SQUARED 0.78, PBLUC_HILL_SLOPE 14.8, PBLUC_R_SQUARED 0.24, read-out: LUCIFERASE INFECTION ASSAY - IC50): 3.1 µM
Cc1ccc(S(=O)(=O)/N=C2\C=C3N(CCO)CCOC3(O)c3ccccc32)c(C)c1 (configuration not stated) | 6.56 µM |  | IC50 (FFLUC_HILL_SLOPE 0.405, FFLUC_R_SQUARED 0.0273, HEPG2TOX_HILL_SLOPE 10.4, HEPG2TOX_R_SQUARED 0.538, PBLUC_HILL_SLOPE 3.34, PBLUC_R_SQUARED 0.51, read-out: LUCIFERASE INFECTION ASSAY - IC50): 3.4 µM
CC(C)N(C(=O)CSC1=NC(c2ccccc2)C2=C(N1)/C(=C/c1ccccc1)CCC2)c1ccccc1 (configuration not stated) | 9.39 µM |  | IC50 (FFLUC_HILL_SLOPE 9.66, FFLUC_R_SQUARED 0.711, HEPG2TOX_HILL_SLOPE 8.12, HEPG2TOX_R_SQUARED 0.779, PBLUC_HILL_SLOPE 2.67, PBLUC_R_SQUARED 0.724, read-out: LUCIFERASE INFECTION ASSAY - IC50): 4.12 µM
CCOC(=O)c1c(S(=O)(=O)Nc2cccc([N+](=O)[O-])c2)c(-c2ccccc2)n(-c2ccccc2)c1C | > 6.53 µM | > 6.53 µM | 
COC(=O)c1cc(Br)ccc1NC(=O)c1cccc(S(=O)(=O)N(Cc2ccccc2)c2ccccc2Cl)c1 | > 10 µM | > 10 µM | 
CCn1c2ccccc2c2cc(/C=C(\C#N)c3nnc(N4CCOCC4)n3-c3ccccc3)ccc21 | > 10 µM | > 10 µM | 
Cc1ccc2nc(Cn3cc(C(F)(F)F)cc(Cl)c3=O)cn2c1 | > 10 µM | > 10 µM | 
CCOC(=O)c1cc(-c2ccccc2)sc1NC(=O)CSc1nnc(-c2cccnc2)n1-c1ccccc1C | > 10 µM |  | IC50 (PBLUC_HILL_SLOPE 3.21, PBLUC_R_SQUARED 0.715, read-out: LUCIFERASE INFECTION ASSAY - IC50): 6.74 µM
Cc1cccc(COC(=O)C2CCN(C3=NS(=O)(=O)c4ccccc43)CC2)c1 | > 10 µM | > 10 µM | 
CCc1cccc(CC)c1NC(=O)COC(=O)c1[nH]c(C)c(C(C)=O)c1C | > 10 µM | > 10 µM | 
N#C/C(C(=O)c1ccc([N+](=O)[O-])s1)=C1\Nc2ccccc2S1 | > 10 µM |  | IC50 (HEPG2TOX_HILL_SLOPE 0.276, HEPG2TOX_R_SQUARED 0.471, PBLUC_HILL_SLOPE 0.885, PBLUC_R_SQUARED 0.549, read-out: LUCIFERASE INFECTION ASSAY - IC50): 0.951 µM

SMILES | IC90 | IC50 [1] | other results
CN1CCN(C(=O)c2cccc(-c3cnc4cnc(-c5ccccc5Oc5ccccc5)cn34)c2)CC1 | > 6.74 µM |  | IC50 (PBLUC_HILL_SLOPE 3.72, PBLUC_R_SQUARED 0.499, read-out: LUCIFERASE INFECTION ASSAY - IC50): 3.93 µM
CC(C)Cn1c(-c2cccs2)nc2c(c(=O)c3ccccc3n2C)c1=O | 8.59 µM |  | IC50 (PBLUC_HILL_SLOPE 2.62, PBLUC_R_SQUARED 0.237, read-out: LUCIFERASE INFECTION ASSAY - IC50): 3.71 µM
COc1ccc(-n2nc(C)c3c2NC(=O)CC3c2ccc3c(c2)OCO3)cc1 (configuration not stated) | > 8.74 µM |  | IC50 (HEPG2TOX_HILL_SLOPE 1.66, HEPG2TOX_R_SQUARED 0.931, PBLUC_HILL_SLOPE 1.06, PBLUC_R_SQUARED 0.555, read-out: LUCIFERASE INFECTION ASSAY - IC50): 1.33 µM
COc1ccc(S(=O)(=O)N2CCN(c3cc(C)c4ccccc4n3)CC2)cc1 | > 8.3 µM | > 8.3 µM | 
CCC(C)(C)C1CCC(NC(=O)c2ccc(OC)c(OC)c2OC)CC1 (configuration not stated) | > 10 µM | > 10 µM | 
COc1ccc(-n2nnnc2SCC(=O)Nc2cc(-c3ccc(C)cc3)nn2-c2ccccc2)cc1 | > 10 µM | > 10 µM | 
CCSC1=N/C(=C\c2cc(C(C)(C)C)c(O)c(C(C)(C)C)c2)C(=O)S1 | > 8.74 µM |  | IC50 (FFLUC_HILL_SLOPE 2.27, FFLUC_R_SQUARED 0.423, read-out: LUCIFERASE INFECTION ASSAY - IC50): > 8.74 µM
O=C(Nc1ncc(Cc2ccccc2Br)s1)c1ccc2nc[nH]c2c1 | > 10 µM |  | IC50 (HEPG2TOX_HILL_SLOPE 2.12, HEPG2TOX_R_SQUARED 0.698, PBLUC_HILL_SLOPE 2.32, PBLUC_R_SQUARED 0.476, read-out: LUCIFERASE INFECTION ASSAY - IC50): 4.08 µM
Cc1cc(C)n(-c2nc(C)c(Br)c(NC(C)c3ccccc3)n2)n1 (configuration not stated) | > 8.54 µM |  | IC50 (PBLUC_HILL_SLOPE 5.33, PBLUC_R_SQUARED 0.256, read-out: LUCIFERASE INFECTION ASSAY - IC50): 5.95 µM
CCOC(=O)C1=C(N)n2c(s/c(=C\c3ccc(OC)cc3)c2=O)=CC1c1ccc(OC)cc1 (configuration not stated) | > 7.1 µM | > 7.1 µM | 
O=C(Nc1ccc(Cl)cc1C(F)(F)F)C(OC(=O)C(c1ccccc1)c1ccccc1)c1ccccc1 (configuration not stated) | > 10 µM | > 10 µM | 
Cc1cccc(Cn2nc(C(C)(C)C)cc2C(=O)Nc2ccc(C(C)(C)C)cc2)c1 | > 8.18 µM |  | IC50 (FFLUC_HILL_SLOPE 3.48, FFLUC_R_SQUARED 0.696, read-out: LUCIFERASE INFECTION ASSAY - IC50): > 8.18 µM
Cc1ccsc1C(=O)Nc1ccc(N2CCN(C)CC2)cn1 | 0.343 µM | 0.0143 µM | 
N#Cc1ccc(Cl)cc1/N=C/C(Br)=C/c1ccccc1 | > 10 µM | > 10 µM | 
O=S(=O)(NCc1cc(C(F)(F)F)cc(C(F)(F)F)c1)c1cc(C(F)(F)F)cc(C(F)(F)F)c1 | > 6.35 µM | > 6.35 µM | 
N#Cc1cc(-c2ccc(Cl)cc2)cnc1OC(=O)c1ccc(Cl)cc1 | > 8.94 µM |  | IC50 (HEPG2TOX_HILL_SLOPE 24.3, HEPG2TOX_R_SQUARED 0.913, PBLUC_HILL_SLOPE 3.24, PBLUC_R_SQUARED 0.477, read-out: LUCIFERASE INFECTION ASSAY - IC50): 6.19 µM
Cc1sc2nc3c4ccccc4c(Cl)nn3c(=O)c2c1C | > 10 µM |  | IC50 (HEPG2TOX_HILL_SLOPE 1.74, HEPG2TOX_R_SQUARED 0.905, PBLUC_HILL_SLOPE 1.87, PBLUC_R_SQUARED 0.353, read-out: LUCIFERASE INFECTION ASSAY - IC50): 5.64 µM
CC(=O)Nc1cccc(-c2cnc3ccc(-c4cccs4)nn23)c1 | 3.37 µM |  | IC50 (HEPG2TOX_HILL_SLOPE 0.814, HEPG2TOX_R_SQUARED 0.982, PBLUC_HILL_SLOPE 1.1, PBLUC_R_SQUARED 0.75, read-out: LUCIFERASE INFECTION ASSAY - IC50): 0.461 µM
COC(=O)c1noc(C)c1-c1ccnn1C(=O)Nc1cccc(Cl)c1 | 8.47 µM |  | IC50 (PBLUC_HILL_SLOPE 10.3, PBLUC_R_SQUARED 0.543, read-out: LUCIFERASE INFECTION ASSAY - IC50): 6.84 µM
O=C(Nc1ccc(Oc2ccccc2)cc1)c1csc(C(O)c2ccccc2)n1 (configuration not stated) | 7.41 µM | 1.63 µM | 
CCCCNC(=O)c1c(NC(=O)c2cccc(OC)c2)nc2ccccn12 | 4.95 µM |  | IC50 (HEPG2TOX_HILL_SLOPE 2.8, HEPG2TOX_R_SQUARED 0.959, PBLUC_HILL_SLOPE 5.29, PBLUC_R_SQUARED 0.462, read-out: LUCIFERASE INFECTION ASSAY - IC50): 3.27 µM
Cc1nn(Cc2nnc(SCc3cccc(C(F)(F)F)c3)o2)c(C)c1Br | > 7.38 µM | > 7.38 µM | 
CCc1ccccc1Nc1nc(N)nc(CN2CCc3ccccc32)n1 | > 10 µM |  | IC50 (PBLUC_HILL_SLOPE 1.23, PBLUC_R_SQUARED 0.247, read-out: LUCIFERASE INFECTION ASSAY - IC50): 5.31 µM
